Structures can show the parent of a compound that is named as a salt.
Columns and labels:
[1] = biological target: human insulin (hexameric form) (Homo sapiens, UniProt P01308); experiment: Association state of human insulin evaluated by circular dichroism (CD signal at 275 nm); type: physicochemical; conditions: D2, FIG. 12; rhINS + 9.3 mM citrate, 6 mM EDTA, 7.3 mg/ml Compound 1, 20 mg/ml Polyanionic compound 1
Method: (§1) Circular dichroism makes it possible to study the secondary and quaternary structure of insulin. The insulin monomers are organized as dimers and as hexamers. […] The CD signal at 275 nm is characteristic of the hexameric form of insulin (hexamer signal at about −300°, signal for the dimer between −200° and −250°, and signal for the monomer below −200°. Loss of the CD signal at 275 nm is therefore characteristic of destabilization of the hexamer into dimers or monomers.
as §1, with “−200°).” for “−200°.”

human insulin = human insulin (Homo sapiens, UniProt P01308); experiment: Dissolution of human insulin at its isoelectric point (pH 5.3); type: binding; conditions: translucent = Yes, turbid = No
Method: If an interaction exists, it is possible to dissolve the insulin at its isoelectric point. […] Solutions of compounds at different concentrations (8, 30 or 100 mg/mL) in water are prepared. […] The pH of the various solutions is adjusted to pH 5.3 by adding 200 mM acetic acid. The appearance of the solution is documented.

[2] = biological target: BSA (bovine serum albumin) (Bos taurus, UniProt P02769); experiment: Interaction with albumin, Centricon test (50 kDa membrane), UV assay of the filtrate; type: binding; conditions: 2.43 mg/mL of polysaccharide or compound, 13.3 mg/mL of albumin in PBS, about 100 mM of salts
Method: F1: In order to determine the interactions between the various polysaccharides or compounds and a model protein such as albumin, a Centricon test (membrane with a cut-off threshold of 50 kDa) was performed. A solution of polysaccharide or of compound at 7.3 mg/mL was diluted three-fold in a solution of BSA (bovine serum albumin) at 20 mg/mL in PBS (concentration in the mixture: 2.43 mg/mL of polysaccharide or of compound, 13.3 mg/mL of albumin and about 100 mM of salts).
This mixture was centrifuged on a Centricon to make about half the volume pass through the membrane. The albumin is quantitatively retained on the Centricon membrane. The polysaccharides and compounds analyzed alone pass in large majority through the membrane (for the polysaccharides having the largest molar masses, about 20% of the polysaccharide is retained).
After centrifugation, the polysaccharide or compound is assayed by UV in the filtrate. The percentage of polysaccharide or compound bound to the albumin is calculated via the following equation:
(1-[polysaccharide or compound in the filtrate in the presence of albumin]/[polysaccharide or compound in the filtrate in the absence of albumin])*100

[3] = pH at which the insulin precipitates; cited from earlier work
man = conditions: subcutaneously-injected, diabetic patients; cited from earlier work
[4] = biological target: T1, lispro insulin (R6 hexameric form) (Homo sapiens, UniProt P01308, K53P/P52K); experiment: Association state of lispro insulin evaluated by circular dichroism (CD signal at 251 nm); type: physicochemical; conditions: D1, FIG. 11; Humalog + 9.3 mM citrate, 6 mM EDTA, 7.3 mg/ml Compound 1, 20 mg/ml Polyanionic compound 1
T1 construct: purchased Eli Lilly Humalog®
Source text: (§2) Circular dichroism makes it possible to study the secondary and quaternary structure of insulin. The insulin monomers are organized as dimers and as hexamers. […] Two hexameric forms exist, the R6 form and the T6 form. […] Loss of the CD signal at 251 nm is linked to destabilization of the hexamer (and thus the first sign of transformation of the hexamer into dimer).
as §2, with “dimer). […]” for “dimer).”

BSA (bovine serum albumin), sequence (P02769 25-607): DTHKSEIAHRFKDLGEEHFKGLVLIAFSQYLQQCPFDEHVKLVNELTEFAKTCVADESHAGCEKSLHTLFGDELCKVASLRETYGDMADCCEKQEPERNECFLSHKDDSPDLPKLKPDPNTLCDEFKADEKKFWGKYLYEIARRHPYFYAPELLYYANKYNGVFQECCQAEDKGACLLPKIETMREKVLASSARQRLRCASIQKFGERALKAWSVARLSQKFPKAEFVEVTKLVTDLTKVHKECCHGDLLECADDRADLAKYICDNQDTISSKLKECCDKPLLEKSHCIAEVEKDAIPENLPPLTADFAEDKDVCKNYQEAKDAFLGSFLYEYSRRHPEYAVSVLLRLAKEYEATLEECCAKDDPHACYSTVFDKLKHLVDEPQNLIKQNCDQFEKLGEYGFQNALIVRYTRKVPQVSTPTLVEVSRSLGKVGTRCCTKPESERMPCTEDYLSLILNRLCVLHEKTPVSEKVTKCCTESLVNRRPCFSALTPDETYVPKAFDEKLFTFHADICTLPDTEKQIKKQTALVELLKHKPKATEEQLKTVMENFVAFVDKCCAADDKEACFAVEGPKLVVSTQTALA
human insulin, sequence (P01308 25-54 limits assumed): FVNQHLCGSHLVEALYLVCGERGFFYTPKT
human insulin, sequence (P01308 90-110 limits assumed): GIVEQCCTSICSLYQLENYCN
human insulin (hexameric form), sequence (P01308 25-54 limits assumed): as the sequence (P01308 25-54 limits assumed) above
T1 sequence (P01308 25-54 P52K/K53P limits assumed): as the sequence (P01308 25-54 limits assumed) above, with P28K, K29P counted along it

Row | Dissolution of human insulin at 100 IU/mL with the compound at 4 mg/mL (human insulin) | Dissolution of human insulin at 100 IU/mL with the compound at 15 mg/mL (human insulin) | Dissolution of human insulin at 100 IU/mL with the compound at 50 mg/mL (human insulin) | % Polysaccharide or % Compound bound to BSA [2] [%] | Compound | impact on the CD signal at 275 nm / hexameric structure of human insulin [1] | further results
1 |  |  |  |  | Sodium Maltotriosemethylcarboxylate [Polyanionic compound 1] | no impact on the hexameric structure of human insulin | 
2 | No | No | Yes | 27 | Sodium Maltopentaosemethylcarboxylate Functionalized with Sodium L-Phenylalaninate [Compound 8] |  | 
3 |  |  |  |  | Lispro insulin: rapid insulin analog, active principle of Humalog |  | isoelectric point [3]: 5.3
4 |  |  |  |  | human insulin: insulin obtained by synthesis or recombination, whose peptide sequence is the sequence of human insulin |  | hypoglycemiant effect only after (man): 60 min
5 | No | No | Yes |  | Sodium Maltotriosemethylcarboxylate Functionalized with Sodium L-Tyrosinate [Compound 10] |  | 
6 | No | No | Yes | 43 | Sodium Maltooctaosemethylcarboxylate Functionalized with Sodium L-Phenylalaninate [Compound 9] |  | 
7 |  |  |  |  | O=C(O)CC(O)(CC(=O)O)C(=O)O [citrate, sodium citrate] | no impact on the hexameric structure of human insulin | impact on the CD signal at 251 nm / R6 hexameric form of lispro insulin [4]: virtually no impact on the CD signal at 251 nm
8 |  |  |  |  | O=C(O)CN(CCN(CC(=O)O)CC(=O)O)CC(=O)O [EDTA, reference compound] | total dissociation of the hexamer into dimers | impact on the CD signal at 251 nm / R6 hexameric form of lispro insulin [4]: completely destructure the R6 form of lispro insulin
9 |  |  |  | 35 | Sodium Maltotriosemethylcarboxylate Functionalized with Sodium Alpha-Phenylglycinate [Compound 11] |  | 

Source: patent US10881716B2, “Rapid-acting insulin formulation comprising a substituted anionic compound” (ADOCIA, priority 2012, dated 2021)
